Among the data in ChEMBL document CHEMBL5465560, “Selectivity Literature for EUbOPEN Chemogenomic Library” (2024) are % of inhibition and % of control values, retold here.

For assay [1], the target named is Ribosomal protein S6 kinase alpha-4 (Homo sapiens) (UniProt O75676). Briefly: Selectivity interaction (Upstate Kinase Profiler service (Millipore)) EUB0000056c RPS6KA4. The conditions noted are these: at 1 µM.
Assay [2] relates to Epidermal growth factor receptor (Homo sapiens), P00533 [G719S]. Particulars: at 10 µM.
Epidermal growth factor receptor (Homo sapiens), P00533 [G719S], sequence (P00533 whole entry G719S): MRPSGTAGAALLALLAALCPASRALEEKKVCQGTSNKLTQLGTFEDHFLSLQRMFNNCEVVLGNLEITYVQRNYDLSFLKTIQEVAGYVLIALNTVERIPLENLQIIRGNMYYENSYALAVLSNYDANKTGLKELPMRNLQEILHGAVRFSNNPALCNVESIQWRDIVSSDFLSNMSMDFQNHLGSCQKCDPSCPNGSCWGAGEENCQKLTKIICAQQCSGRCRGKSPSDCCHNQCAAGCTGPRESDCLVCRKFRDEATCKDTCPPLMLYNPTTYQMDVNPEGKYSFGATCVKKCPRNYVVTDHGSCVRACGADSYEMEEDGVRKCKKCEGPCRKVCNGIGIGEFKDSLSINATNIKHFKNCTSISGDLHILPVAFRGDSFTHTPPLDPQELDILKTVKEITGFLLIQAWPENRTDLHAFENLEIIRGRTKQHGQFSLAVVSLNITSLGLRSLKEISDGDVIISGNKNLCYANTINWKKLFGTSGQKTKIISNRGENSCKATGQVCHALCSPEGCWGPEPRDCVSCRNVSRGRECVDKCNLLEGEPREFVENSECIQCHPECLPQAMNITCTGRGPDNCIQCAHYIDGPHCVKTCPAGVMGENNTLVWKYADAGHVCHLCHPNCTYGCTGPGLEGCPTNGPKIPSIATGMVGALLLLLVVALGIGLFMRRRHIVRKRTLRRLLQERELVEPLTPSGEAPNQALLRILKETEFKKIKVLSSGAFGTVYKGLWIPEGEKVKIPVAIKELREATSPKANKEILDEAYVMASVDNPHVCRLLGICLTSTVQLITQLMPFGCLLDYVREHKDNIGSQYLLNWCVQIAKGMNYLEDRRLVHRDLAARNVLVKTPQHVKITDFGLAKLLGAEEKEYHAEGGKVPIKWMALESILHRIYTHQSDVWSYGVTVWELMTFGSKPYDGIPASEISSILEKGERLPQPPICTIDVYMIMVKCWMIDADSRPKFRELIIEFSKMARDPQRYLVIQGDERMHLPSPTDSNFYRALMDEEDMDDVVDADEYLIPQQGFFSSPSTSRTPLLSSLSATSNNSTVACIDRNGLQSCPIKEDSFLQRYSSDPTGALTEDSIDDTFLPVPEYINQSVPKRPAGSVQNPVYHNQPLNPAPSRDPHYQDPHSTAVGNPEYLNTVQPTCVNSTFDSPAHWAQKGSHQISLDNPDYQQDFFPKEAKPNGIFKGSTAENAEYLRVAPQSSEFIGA
The target of assay [3] is Leucine-rich repeat serine/threonine-protein kinase 2 (Homo sapiens, UniProt Q5S007). Description: Selectivity interaction (SelectScreen Kinase Profiling (Thermo Fisher Scientific)) EUB0001558a LRRK2. The conditions noted are these: at 1 µM.
Leucine-rich repeat serine/threonine-protein kinase 2, sequence (Q5S007 whole entry): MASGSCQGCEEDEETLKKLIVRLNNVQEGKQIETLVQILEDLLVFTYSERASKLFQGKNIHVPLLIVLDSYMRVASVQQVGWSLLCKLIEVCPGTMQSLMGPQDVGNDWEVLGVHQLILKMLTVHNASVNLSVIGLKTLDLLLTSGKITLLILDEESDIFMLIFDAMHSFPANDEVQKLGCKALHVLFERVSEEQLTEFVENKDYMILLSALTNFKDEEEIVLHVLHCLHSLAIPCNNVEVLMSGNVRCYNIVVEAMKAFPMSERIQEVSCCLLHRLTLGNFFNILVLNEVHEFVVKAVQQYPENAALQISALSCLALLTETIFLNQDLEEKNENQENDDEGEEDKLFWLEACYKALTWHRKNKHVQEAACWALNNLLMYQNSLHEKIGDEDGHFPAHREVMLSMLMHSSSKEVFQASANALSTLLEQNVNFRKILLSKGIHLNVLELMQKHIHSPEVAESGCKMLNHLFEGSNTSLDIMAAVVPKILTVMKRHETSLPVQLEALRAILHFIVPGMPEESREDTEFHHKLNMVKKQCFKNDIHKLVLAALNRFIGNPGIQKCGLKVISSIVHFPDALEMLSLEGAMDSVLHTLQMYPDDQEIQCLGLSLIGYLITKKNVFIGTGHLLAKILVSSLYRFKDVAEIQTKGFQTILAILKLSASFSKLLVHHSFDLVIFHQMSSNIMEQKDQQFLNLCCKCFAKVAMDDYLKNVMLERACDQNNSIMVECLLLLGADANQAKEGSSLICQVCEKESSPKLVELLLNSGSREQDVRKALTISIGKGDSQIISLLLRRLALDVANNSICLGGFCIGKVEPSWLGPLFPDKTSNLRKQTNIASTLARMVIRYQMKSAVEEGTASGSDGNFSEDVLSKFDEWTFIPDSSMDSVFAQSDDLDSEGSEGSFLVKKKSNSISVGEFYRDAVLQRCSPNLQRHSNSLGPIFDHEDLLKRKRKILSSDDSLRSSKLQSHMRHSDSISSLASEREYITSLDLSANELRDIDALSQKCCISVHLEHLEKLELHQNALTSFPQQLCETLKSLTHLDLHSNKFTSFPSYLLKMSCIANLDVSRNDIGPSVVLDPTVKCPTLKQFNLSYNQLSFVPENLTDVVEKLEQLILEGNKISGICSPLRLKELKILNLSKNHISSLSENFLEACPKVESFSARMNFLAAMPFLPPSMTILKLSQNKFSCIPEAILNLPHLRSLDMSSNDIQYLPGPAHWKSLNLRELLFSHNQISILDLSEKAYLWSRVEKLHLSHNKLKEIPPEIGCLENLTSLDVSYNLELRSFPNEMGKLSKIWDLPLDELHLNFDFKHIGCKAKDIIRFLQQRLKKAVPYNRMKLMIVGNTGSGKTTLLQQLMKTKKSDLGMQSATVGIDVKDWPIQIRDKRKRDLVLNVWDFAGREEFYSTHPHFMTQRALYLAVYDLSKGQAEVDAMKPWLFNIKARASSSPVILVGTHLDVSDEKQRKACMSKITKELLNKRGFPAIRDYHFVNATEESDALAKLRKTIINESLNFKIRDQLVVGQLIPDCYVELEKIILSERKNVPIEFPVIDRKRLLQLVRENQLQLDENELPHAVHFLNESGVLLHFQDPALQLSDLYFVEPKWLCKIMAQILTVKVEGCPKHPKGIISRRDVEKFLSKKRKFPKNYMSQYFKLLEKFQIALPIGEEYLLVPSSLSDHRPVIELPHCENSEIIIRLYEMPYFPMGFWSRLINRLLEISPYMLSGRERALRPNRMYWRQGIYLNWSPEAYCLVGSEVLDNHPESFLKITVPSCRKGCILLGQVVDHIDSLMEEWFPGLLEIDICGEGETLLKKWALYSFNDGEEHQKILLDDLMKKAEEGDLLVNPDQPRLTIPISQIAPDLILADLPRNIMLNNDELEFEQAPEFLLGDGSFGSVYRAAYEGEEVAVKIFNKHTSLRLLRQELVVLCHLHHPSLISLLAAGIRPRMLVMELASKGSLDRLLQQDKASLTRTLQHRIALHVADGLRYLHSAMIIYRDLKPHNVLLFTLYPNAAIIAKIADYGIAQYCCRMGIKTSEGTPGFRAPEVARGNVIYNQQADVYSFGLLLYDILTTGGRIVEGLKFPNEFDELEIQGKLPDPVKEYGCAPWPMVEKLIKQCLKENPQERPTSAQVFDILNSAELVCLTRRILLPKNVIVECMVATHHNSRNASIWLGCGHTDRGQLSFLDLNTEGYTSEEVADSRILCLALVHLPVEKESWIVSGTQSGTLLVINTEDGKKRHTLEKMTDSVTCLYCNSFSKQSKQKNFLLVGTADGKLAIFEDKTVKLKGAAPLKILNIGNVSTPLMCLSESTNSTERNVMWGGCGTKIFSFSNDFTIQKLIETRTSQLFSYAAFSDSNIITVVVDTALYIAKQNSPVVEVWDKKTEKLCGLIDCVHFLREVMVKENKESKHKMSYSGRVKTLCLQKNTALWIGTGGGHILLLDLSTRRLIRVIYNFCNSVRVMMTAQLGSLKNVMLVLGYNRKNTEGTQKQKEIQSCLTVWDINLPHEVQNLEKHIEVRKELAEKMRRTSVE
For assay [4], the target named is Receptor tyrosine-protein kinase erbB-4 (Homo sapiens, UniProt Q15303). The conditions noted are these: at 10 µM.
For assay [5], the target named is T1, MAP/microtubule affinity-regulating kinase 4 (Homo sapiens) (UniProt Q96L34).
T1 sequence (whole entry): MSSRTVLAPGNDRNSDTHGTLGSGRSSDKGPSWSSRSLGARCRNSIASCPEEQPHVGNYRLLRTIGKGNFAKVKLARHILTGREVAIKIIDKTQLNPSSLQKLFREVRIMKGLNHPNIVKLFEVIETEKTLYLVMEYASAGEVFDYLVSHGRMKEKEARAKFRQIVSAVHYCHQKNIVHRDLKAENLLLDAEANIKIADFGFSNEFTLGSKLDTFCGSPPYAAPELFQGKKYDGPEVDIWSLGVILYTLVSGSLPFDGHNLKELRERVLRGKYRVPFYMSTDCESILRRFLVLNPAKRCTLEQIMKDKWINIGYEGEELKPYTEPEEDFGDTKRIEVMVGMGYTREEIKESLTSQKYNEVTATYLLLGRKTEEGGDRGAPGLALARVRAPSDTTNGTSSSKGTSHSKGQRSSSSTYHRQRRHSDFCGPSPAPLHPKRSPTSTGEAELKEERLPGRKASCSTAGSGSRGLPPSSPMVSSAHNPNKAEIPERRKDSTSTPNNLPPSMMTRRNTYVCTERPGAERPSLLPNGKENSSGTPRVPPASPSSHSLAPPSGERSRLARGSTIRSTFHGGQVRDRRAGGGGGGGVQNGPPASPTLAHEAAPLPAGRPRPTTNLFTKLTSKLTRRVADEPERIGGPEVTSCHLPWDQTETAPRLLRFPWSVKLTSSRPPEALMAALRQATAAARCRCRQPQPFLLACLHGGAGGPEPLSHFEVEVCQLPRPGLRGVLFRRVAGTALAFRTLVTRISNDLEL
Briefly: Selectivity interaction (Kinase panel (Carna Biosciences)) EUB0001542aTs MARK4. The conditions noted are these: at 1 µM.

Assay [6] deals with T2, Serine/threonine-protein kinase LATS1 (Homo sapiens) (UniProt O95835).
T2 sequence (whole entry): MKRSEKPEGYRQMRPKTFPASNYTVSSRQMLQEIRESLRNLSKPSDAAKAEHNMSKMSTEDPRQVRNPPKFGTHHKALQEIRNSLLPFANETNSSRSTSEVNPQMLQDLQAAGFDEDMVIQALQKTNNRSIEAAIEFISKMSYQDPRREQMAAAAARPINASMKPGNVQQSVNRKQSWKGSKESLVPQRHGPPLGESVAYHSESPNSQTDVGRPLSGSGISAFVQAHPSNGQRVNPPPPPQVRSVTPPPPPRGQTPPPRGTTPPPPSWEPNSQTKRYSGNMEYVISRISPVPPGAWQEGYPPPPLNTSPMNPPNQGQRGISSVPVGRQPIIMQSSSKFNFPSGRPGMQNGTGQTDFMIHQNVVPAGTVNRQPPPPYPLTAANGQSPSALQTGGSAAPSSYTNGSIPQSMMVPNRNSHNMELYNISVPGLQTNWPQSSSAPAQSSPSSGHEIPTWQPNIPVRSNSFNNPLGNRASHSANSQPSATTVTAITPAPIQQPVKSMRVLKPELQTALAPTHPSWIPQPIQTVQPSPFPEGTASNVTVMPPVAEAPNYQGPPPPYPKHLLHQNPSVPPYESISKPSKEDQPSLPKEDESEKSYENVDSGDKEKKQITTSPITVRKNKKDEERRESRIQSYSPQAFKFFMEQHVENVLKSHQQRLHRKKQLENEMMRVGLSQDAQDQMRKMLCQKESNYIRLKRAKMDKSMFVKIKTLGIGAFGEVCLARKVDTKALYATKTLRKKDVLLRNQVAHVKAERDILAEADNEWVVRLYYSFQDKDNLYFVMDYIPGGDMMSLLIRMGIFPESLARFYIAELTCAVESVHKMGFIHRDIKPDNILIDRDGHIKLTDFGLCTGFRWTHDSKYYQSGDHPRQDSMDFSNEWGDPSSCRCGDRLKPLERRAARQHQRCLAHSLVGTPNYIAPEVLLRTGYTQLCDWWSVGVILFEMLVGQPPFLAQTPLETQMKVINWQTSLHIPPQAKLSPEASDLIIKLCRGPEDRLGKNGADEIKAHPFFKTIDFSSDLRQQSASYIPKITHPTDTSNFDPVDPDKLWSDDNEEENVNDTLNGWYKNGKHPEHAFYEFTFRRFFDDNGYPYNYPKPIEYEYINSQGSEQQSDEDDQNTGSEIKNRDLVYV
Briefly: Selectivity interaction (KinomeScan (DiscoverX)) EUB0000666a LATS1. Particulars: at 10 µM.

Assay [7] relates to Tyrosine-protein kinase ABL1 (Homo sapiens), P00519 [T315I]. Briefly: Selectivity interaction (KinomeScan (DiscoverX)) EUB0000607a ABL1. The conditions noted are these: at 10 µM.
In assay [8] the target is Ribosomal protein S6 kinase alpha-6 (Homo sapiens, UniProt Q9UK32). Description: Selectivity interaction (KinomeScan (DiscoverX)) EUB0000607a RPS6KA6. The conditions noted are these: at 10 µM.
Assay [9] concerns the target T3, Aurora kinase A (Homo sapiens) (UniProt O14965).
T3 sequence (whole entry): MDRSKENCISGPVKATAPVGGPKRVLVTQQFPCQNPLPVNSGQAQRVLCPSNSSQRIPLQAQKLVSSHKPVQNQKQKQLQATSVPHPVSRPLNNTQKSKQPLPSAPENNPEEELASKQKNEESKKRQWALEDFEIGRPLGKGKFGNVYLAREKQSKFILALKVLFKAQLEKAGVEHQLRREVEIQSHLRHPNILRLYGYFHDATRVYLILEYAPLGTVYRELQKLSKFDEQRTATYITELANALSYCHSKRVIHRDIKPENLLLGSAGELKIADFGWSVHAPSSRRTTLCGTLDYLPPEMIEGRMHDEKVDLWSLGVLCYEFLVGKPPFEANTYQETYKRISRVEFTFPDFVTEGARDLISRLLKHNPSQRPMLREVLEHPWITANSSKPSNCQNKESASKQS
Briefly: Selectivity interaction (KinomeScan (DiscoverX)) EUB0001619a STK6. The conditions noted are these: at 1 µM.

The subject of assay [10] is Epidermal growth factor receptor (Homo sapiens), P00533 [L858R,T790M]. Briefly: (§1) Selectivity interaction (KinomeScan (DiscoverX)) EUB0000618a EGFR. Particulars: at 10 µM.
The test system of assay [11] is Epidermal growth factor receptor (Homo sapiens), P00533 [UNDEFINED MUTATION]. The description is as §1. Particulars: at 10 µM.
Epidermal growth factor receptor (Homo sapiens), P00533 [UNDEFINED MUTATION], sequence (P00533 whole entry, looked up, stated change not applied): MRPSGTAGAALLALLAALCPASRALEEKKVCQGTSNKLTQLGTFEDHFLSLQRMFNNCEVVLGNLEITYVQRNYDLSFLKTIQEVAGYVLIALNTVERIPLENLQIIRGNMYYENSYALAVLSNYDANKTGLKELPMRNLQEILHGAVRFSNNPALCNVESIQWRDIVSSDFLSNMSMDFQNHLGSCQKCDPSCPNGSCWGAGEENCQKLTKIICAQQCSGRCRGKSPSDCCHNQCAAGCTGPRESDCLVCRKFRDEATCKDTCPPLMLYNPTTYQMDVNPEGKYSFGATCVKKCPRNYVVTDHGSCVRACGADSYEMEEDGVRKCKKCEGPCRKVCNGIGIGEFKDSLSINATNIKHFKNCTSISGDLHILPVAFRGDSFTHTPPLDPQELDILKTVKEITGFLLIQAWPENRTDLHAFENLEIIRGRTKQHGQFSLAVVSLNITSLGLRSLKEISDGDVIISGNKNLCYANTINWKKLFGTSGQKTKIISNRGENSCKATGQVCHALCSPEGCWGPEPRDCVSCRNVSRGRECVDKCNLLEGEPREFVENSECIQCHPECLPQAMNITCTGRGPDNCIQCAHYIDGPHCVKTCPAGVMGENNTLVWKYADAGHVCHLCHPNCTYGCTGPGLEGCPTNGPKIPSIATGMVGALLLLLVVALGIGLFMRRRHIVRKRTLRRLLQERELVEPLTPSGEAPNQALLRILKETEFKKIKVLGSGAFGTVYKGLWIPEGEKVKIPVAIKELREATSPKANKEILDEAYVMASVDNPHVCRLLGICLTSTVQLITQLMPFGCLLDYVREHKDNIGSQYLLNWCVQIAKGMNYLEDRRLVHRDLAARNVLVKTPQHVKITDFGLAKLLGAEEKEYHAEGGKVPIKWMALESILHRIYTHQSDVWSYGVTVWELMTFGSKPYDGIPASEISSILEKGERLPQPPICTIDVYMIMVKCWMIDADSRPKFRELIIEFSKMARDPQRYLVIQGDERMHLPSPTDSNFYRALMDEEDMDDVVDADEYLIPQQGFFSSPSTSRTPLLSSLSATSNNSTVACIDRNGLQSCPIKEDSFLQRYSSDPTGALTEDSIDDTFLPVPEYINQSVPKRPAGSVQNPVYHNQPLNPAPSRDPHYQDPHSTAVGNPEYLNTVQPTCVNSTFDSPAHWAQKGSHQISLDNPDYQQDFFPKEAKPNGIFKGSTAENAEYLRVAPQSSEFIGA
In assay [12] the test system is Epidermal growth factor receptor (Homo sapiens), P00533 [T790M]. The description is as §1. Particulars: at 10 µM.
Assay [13] relates to Epidermal growth factor receptor (Homo sapiens), P00533 [L858R]. Described as §1. The conditions noted are these: at 10 µM.
Assay [14] has as its system Epidermal growth factor receptor (Homo sapiens), P00533 [G719C]. The description is as §1. Particulars: at 10 µM.

Consider `Cc1ccc(-c2ccc3c(ccc4sc5c(c43)NC[C@@H](C)NC5=O)n2)cn1`, for which, in [1], the % of inhibition was -19%.

`Cc1cc([C@@H](C)Nc2ccccc2C(=O)O)c2nc(N3CCOCC3)cc(=O)n2c1` [AZD-6482] displayed a % of control in [2] of 98%.

With `CC(C)(O)[C@H](F)CN1Cc2cc(NC(=O)c3cnn4cccnc34)c(N3CCOCC3)cc2C1=O`, the % of inhibition in [3] amounted to 91.4%.

Consider `CCN(CC)CCCCNc1ncc2cc(-c3cc(OC)cc(OC)c3)c(NC(=O)NC(C)(C)C)nc2n1`, for which the % of control in assay [4] is 100%.

For the compound `Cn1cc(Nc2nccc(N3CC4CCC(C3)N4C(=O)[C@@H]3CC3(F)F)n2)cn1`, the % of inhibition in assay [5] stood at 59%.

Take `O=C(NOC[C@H](O)CO)c1ccc(F)c(F)c1Nc1ccc(I)cc1F`: the % of control in assay [6] amounted to 100%.

For `CNC(=O)Nc1ccc(-c2nc(N3CC4CCC(C3)O4)c3cnn(C4CCC5(CC4)OCCO5)c3n2)cc1`, the % of control in assay [7] came to 83%; in assay [8] it was 87%.

For `N#Cc1cccc(-c2c[nH]c3ncnc(N4CCOCC4)c23)c1`, the % of control in assay [9] is 57%.

Take `O[C@H]1CC[C@H](Nc2ncc3nc(Nc4c(F)cc(F)cc4F)n([C@H]4CCOC4)c3n2)CC1`: the % of control is 85% in assay [10]; 7.4% in assay [11]; 72% in [12]; 17% in [13]; 20% in assay [14].
